Data reported in the NIST ThermoML archive (doi:10.1016/j.jct.2016.08.008).
Numbers after ± are expanded uncertainties.

What was measured:
[1] = Molar enthalpy of transition or fusion; conditions: Crystal; DSC
[2] = for viscosity / mass density: 101.33 kPa, Liquid; for viscosity: Falling or rolling sphere viscometry; for mass density: Vibrating tube method
[3] = activity coefficient (dimensionless); of the first substance listed, at infinite dilution; xn = mol fraction of the nth substance listed; conditions: 101.33 kPa, Liquid, Chromatography, x1 = 0

CCCCCCCCCCCCn1cc[n+](C)c1.O=S(=O)([N-]S(=O)(=O)C(F)(F)F)C(F)(F)F
Molar enthalpy of transition or fusion [1]: 36 ± 1.2 kJ/mol
viscosity ([2]; 298.15 K): 125 ± 4 mPa·s
mass density ([2]; 298.15 K): 1242.9 ± 2.9 kg/m3
mass density ([2]; 303.15 K): 1238.8 ± 2.9 kg/m3
viscosity ([2]; 308.15 K): 76.7 ± 1.6 mPa·s
mass density ([2]; 308.15 K): 1234.6 ± 2.9 kg/m3
mass density ([2]; 313.15 K): 1230.4 ± 2.9 kg/m3
viscosity ([2]; 318.15 K): 52.7 ± 0.9 mPa·s
mass density ([2]; 318.15 K): 1226.2 ± 2.9 kg/m3
mass density ([2]; 323.15 K): 1222 ± 2.9 kg/m3
viscosity ([2]; 328.15 K): 37 ± 0.6 mPa·s
mass density ([2]; 328.15 K): 1217.8 ± 2.9 kg/m3
mass density ([2]; 333.15 K): 1213.6 ± 2.9 kg/m3
viscosity ([2]; 338.15 K): 26.6 ± 0.5 mPa·s
mass density ([2]; 338.15 K): 1209.5 ± 2.9 kg/m3
mass density ([2]; 343.15 K): 1205.3 ± 2.9 kg/m3
viscosity ([2]; 348.15 K): 19.5 ± 0.3 mPa·s
mass density ([2]; 348.15 K): 1201.2 ± 2.9 kg/m3
mass density ([2]; 353.15 K): 1197.1 ± 2.9 kg/m3
viscosity ([2]; 358.15 K): 14.7 ± 0.3 mPa·s
mass density ([2]; 358.15 K): 1193 ± 2.8 kg/m3
mass density ([2]; 363.15 K): 1188.9 ± 2.8 kg/m3
viscosity ([2]; 368.15 K): 11.4 ± 0.2 mPa·s
mass density ([2]; 368.15 K): 1184.9 ± 2.8 kg/m3
Normal melting temperature ([2]; Crystal, DTA): 19.2 ± 0.4 °C

C1CCCC1 [cyclopentane] + CCCCCCCCCCCCn1cc[n+](C)c1.O=S(=O)([N-]S(=O)(=O)C(F)(F)F)C(F)(F)F
activity coefficient ([3]; 318.15 K): 1.75 ± 0.12
activity coefficient ([3]; 328.15 K): 1.77 ± 0.12
activity coefficient ([3]; 338.15 K): 1.8 ± 0.12
activity coefficient ([3]; 348.15 K): 1.82 ± 0.12
activity coefficient ([3]; 358.15 K): 1.84 ± 0.12
activity coefficient ([3]; 368.15 K): 1.86 ± 0.13

CCCCCCCCCC [decane] + CCCCCCCCCCCCn1cc[n+](C)c1.O=S(=O)([N-]S(=O)(=O)C(F)(F)F)C(F)(F)F
activity coefficient ([3]; 318.15 K): 5.82 ± 0.4
activity coefficient ([3]; 328.15 K): 5.88 ± 0.4
activity coefficient ([3]; 338.15 K): 5.95 ± 0.41
activity coefficient ([3]; 348.15 K): 6 ± 0.41
activity coefficient ([3]; 358.15 K): 6.06 ± 0.41
activity coefficient ([3]; 368.15 K): 6.12 ± 0.42

CCOCC [diethyl ether] + CCCCCCCCCCCCn1cc[n+](C)c1.O=S(=O)([N-]S(=O)(=O)C(F)(F)F)C(F)(F)F
activity coefficient ([3]; 318.15 K): 0.983 ± 0.062
activity coefficient ([3]; 328.15 K): 1.03 ± 0.06
activity coefficient ([3]; 338.15 K): 1.07 ± 0.07
activity coefficient ([3]; 348.15 K): 1.12 ± 0.07
activity coefficient ([3]; 358.15 K): 1.16 ± 0.07
activity coefficient ([3]; 368.15 K): 1.2 ± 0.08

CC(C)OC(C)C [diisopropyl ether] + CCCCCCCCCCCCn1cc[n+](C)c1.O=S(=O)([N-]S(=O)(=O)C(F)(F)F)C(F)(F)F
activity coefficient ([3]; 318.15 K): 1.65 ± 0.11
activity coefficient ([3]; 328.15 K): 1.72 ± 0.12
activity coefficient ([3]; 338.15 K): 1.79 ± 0.12
activity coefficient ([3]; 348.15 K): 1.86 ± 0.13
activity coefficient ([3]; 358.15 K): 1.93 ± 0.13
activity coefficient ([3]; 368.15 K): 1.99 ± 0.14

CCCOCCC [dipropyl ether] + CCCCCCCCCCCCn1cc[n+](C)c1.O=S(=O)([N-]S(=O)(=O)C(F)(F)F)C(F)(F)F
activity coefficient ([3]; 318.15 K): 1.67 ± 0.11
activity coefficient ([3]; 328.15 K): 1.73 ± 0.12
activity coefficient ([3]; 338.15 K): 1.79 ± 0.12
activity coefficient ([3]; 348.15 K): 1.84 ± 0.12
activity coefficient ([3]; 358.15 K): 1.89 ± 0.13
activity coefficient ([3]; 368.15 K): 1.94 ± 0.13

CCO [ethanol] + CCCCCCCCCCCCn1cc[n+](C)c1.O=S(=O)([N-]S(=O)(=O)C(F)(F)F)C(F)(F)F
activity coefficient ([3]; 318.15 K): 1.38 ± 0.09
activity coefficient ([3]; 328.15 K): 1.3 ± 0.08
activity coefficient ([3]; 338.15 K): 1.23 ± 0.08
activity coefficient ([3]; 348.15 K): 1.17 ± 0.07
activity coefficient ([3]; 358.15 K): 1.11 ± 0.07
activity coefficient ([3]; 368.15 K): 1.06 ± 0.07

CCOC(C)=O [ethyl acetate] + CCCCCCCCCCCCn1cc[n+](C)c1.O=S(=O)([N-]S(=O)(=O)C(F)(F)F)C(F)(F)F
activity coefficient ([3]; 318.15 K): 0.541 ± 0.04
activity coefficient ([3]; 328.15 K): 0.567 ± 0.041
activity coefficient ([3]; 338.15 K): 0.593 ± 0.042
activity coefficient ([3]; 348.15 K): 0.619 ± 0.043
activity coefficient ([3]; 358.15 K): 0.645 ± 0.044
activity coefficient ([3]; 368.15 K): 0.67 ± 0.045

CCc1ccccc1 [ethylbenzene] + CCCCCCCCCCCCn1cc[n+](C)c1.O=S(=O)([N-]S(=O)(=O)C(F)(F)F)C(F)(F)F
activity coefficient ([3]; 318.15 K): 0.911 ± 0.058
activity coefficient ([3]; 328.15 K): 0.951 ± 0.06
activity coefficient ([3]; 338.15 K): 0.992 ± 0.062
activity coefficient ([3]; 348.15 K): 1.03 ± 0.06
activity coefficient ([3]; 358.15 K): 1.07 ± 0.07
activity coefficient ([3]; 368.15 K): 1.11 ± 0.07

CCCCCCC [heptane] + CCCCCCCCCCCCn1cc[n+](C)c1.O=S(=O)([N-]S(=O)(=O)C(F)(F)F)C(F)(F)F
activity coefficient ([3]; 318.15 K): 3.55 ± 0.24
activity coefficient ([3]; 328.15 K): 3.6 ± 0.25
activity coefficient ([3]; 338.15 K): 3.65 ± 0.25
activity coefficient ([3]; 348.15 K): 3.7 ± 0.25
activity coefficient ([3]; 358.15 K): 3.74 ± 0.25
activity coefficient ([3]; 368.15 K): 3.78 ± 0.26

C=CCCCC [hex-1-ene] + CCCCCCCCCCCCn1cc[n+](C)c1.O=S(=O)([N-]S(=O)(=O)C(F)(F)F)C(F)(F)F
activity coefficient ([3]; 318.15 K): 2.15 ± 0.15
activity coefficient ([3]; 328.15 K): 2.2 ± 0.15
activity coefficient ([3]; 338.15 K): 2.25 ± 0.15
activity coefficient ([3]; 348.15 K): 2.29 ± 0.16
activity coefficient ([3]; 358.15 K): 2.34 ± 0.16
activity coefficient ([3]; 368.15 K): 2.38 ± 0.16

CCCCCC [hexane] + CCCCCCCCCCCCn1cc[n+](C)c1.O=S(=O)([N-]S(=O)(=O)C(F)(F)F)C(F)(F)F
activity coefficient ([3]; 318.15 K): 2.96 ± 0.2
activity coefficient ([3]; 328.15 K): 3.02 ± 0.21
activity coefficient ([3]; 338.15 K): 3.09 ± 0.21
activity coefficient ([3]; 348.15 K): 3.14 ± 0.21
activity coefficient ([3]; 358.15 K): 3.2 ± 0.22
activity coefficient ([3]; 368.15 K): 3.26 ± 0.22

CC(C)c1ccccc1 [isopropylbenzene] + CCCCCCCCCCCCn1cc[n+](C)c1.O=S(=O)([N-]S(=O)(=O)C(F)(F)F)C(F)(F)F
activity coefficient ([3]; 318.15 K): 1.15 ± 0.07
activity coefficient ([3]; 328.15 K): 1.2 ± 0.08
activity coefficient ([3]; 338.15 K): 1.24 ± 0.08
activity coefficient ([3]; 348.15 K): 1.28 ± 0.08
activity coefficient ([3]; 358.15 K): 1.32 ± 0.09
activity coefficient ([3]; 368.15 K): 1.36 ± 0.09

CO [methanol] + CCCCCCCCCCCCn1cc[n+](C)c1.O=S(=O)([N-]S(=O)(=O)C(F)(F)F)C(F)(F)F
activity coefficient ([3]; 318.15 K): 1.29 ± 0.08
activity coefficient ([3]; 328.15 K): 1.22 ± 0.08
activity coefficient ([3]; 338.15 K): 1.15 ± 0.07
activity coefficient ([3]; 348.15 K): 1.1 ± 0.07
activity coefficient ([3]; 358.15 K): 1.05 ± 0.07
activity coefficient ([3]; 368.15 K): 1.01 ± 0.06

CCCC(=O)OC [methyl butanoate] + CCCCCCCCCCCCn1cc[n+](C)c1.O=S(=O)([N-]S(=O)(=O)C(F)(F)F)C(F)(F)F
activity coefficient ([3]; 318.15 K): 0.613 ± 0.043
activity coefficient ([3]; 328.15 K): 0.643 ± 0.044
activity coefficient ([3]; 338.15 K): 0.674 ± 0.046
activity coefficient ([3]; 348.15 K): 0.704 ± 0.047
activity coefficient ([3]; 358.15 K): 0.733 ± 0.049
activity coefficient ([3]; 368.15 K): 0.762 ± 0.05
